Reference: patent US11591325B2, “2-polysubstituted aromatic ring-pyrimidine derivatives, preparation and medical application thereof” (ZHEJIANG UNIVERSITY, priority 2016, dated 2023)
Like-named read-outs stand apart in the source and are kept apart here.

Experiments:
[1] = molecular target: T1, Chk1 protein kinase (Homo sapiens, UniProt O14757); experiment: Chk1 enzyme inhibitory activity, ADP-Glo kit; assay type: biochemical
T1 sequence (O14757 1-476): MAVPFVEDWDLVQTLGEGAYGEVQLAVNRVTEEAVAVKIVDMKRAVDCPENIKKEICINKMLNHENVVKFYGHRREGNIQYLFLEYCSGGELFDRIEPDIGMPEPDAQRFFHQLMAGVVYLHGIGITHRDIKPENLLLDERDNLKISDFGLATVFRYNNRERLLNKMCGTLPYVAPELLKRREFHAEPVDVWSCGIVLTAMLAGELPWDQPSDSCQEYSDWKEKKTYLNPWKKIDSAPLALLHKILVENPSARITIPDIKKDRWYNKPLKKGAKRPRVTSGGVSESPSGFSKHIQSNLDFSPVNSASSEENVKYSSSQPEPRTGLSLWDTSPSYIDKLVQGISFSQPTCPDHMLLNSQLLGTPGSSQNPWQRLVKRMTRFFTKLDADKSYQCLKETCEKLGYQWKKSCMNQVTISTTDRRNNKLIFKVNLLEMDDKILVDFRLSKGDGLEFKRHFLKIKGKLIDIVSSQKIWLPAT
Method: With the Saurosporine as a positive control, the Chk1 enzyme inhibitory activity (IC50) was evaluated using the ADP-Glo kit. […] The phosphorylation process consumes ATP. After the reaction, ADP-Glo™ Reagent consumes the remaining ATP. The ADP produced during the reaction can be transformed by ADP-Glo Detection Reagent. For ATP, ATP acts as a substrate for the Ultra-Glo™ luciferase catalytic reaction, producing an optical signal. The test compound was dissolved in DMSO to make a 10 mM stock solution and diluted to 12 different concentrations in a certain ratio for testing. […] Incubate for 1 h, stop the reaction by adding 5 μL of ADP-Glo™ Reagent, and incubate for 1 h at 37° C. 10 μL of ADP-Glo Detection Reagent was added, incubated at 37° C. for 30 min, and three parallel wells were set for each sample. […] was measured by luminescence fluorescence microplate reader, and data were calculated using GraphPad Prism 5 software to calculate IC50 values.

[2] = tested on: human colon cancer cell HCT116; experiment: MTS in vitro proliferation assay, HCT116; assay type: cell-based; conditions: HCT-116, 72 hours, average of three experiments
Method: (§1) The cells in the logarithmic growth phase were trypsinized, counted, and seeded at a density of 1×10^4 cells/well in a 96-well plate at 100 μL per well in a 37° C. incubator containing 5% CO2 overnight. For the culture, six concentration gradients were set for each compound, and three sets of duplicate wells were set for each concentration. After the addition, the cells were cultured for 72 hours, and 20 μL of MTS was added. After incubating for 2 hours at 37° C., the absorbance at 490 nm (L1) was measured with a SpectraMAX 340 microplate reader.

[3] = tested on: human gastric cancer cell BGC-823; experiment: MTS in vitro proliferation assay, BGC-823; assay type: cell-based; conditions: 72 hours, average of three experiments
Method: as §1

[4] = tested on: human lymphoma cells Romas; experiment: MTS in vitro proliferation assay, Romas; assay type: cell-based; conditions: 72 hours
Method: as §1

[5] = tested on: Human lung cancer cell A549; experiment: MTS in vitro proliferation assay, A549; assay type: cell-based; conditions: 72 hours, average of three experiments
Method: as §1

[6] = tested on: human multiple myeloma cells RPMI 8226; experiment: MTS in vitro proliferation assay, RPMI 8226; assay type: cell-based; conditions: 72 hours, read-out: IC50(μM) RPMI8226
Method: as §1

[7] = tested on: human prostate cancer cell LnCAP; experiment: MTS in vitro proliferation assay, LnCAP; assay type: cell-based; conditions: 72 hours, average of three experiments
Method: as §1

[8] = tested on: human mantle cell lymphoma cells Jeko-1; experiment: MTS in vitro proliferation assay, Jeko-1; assay type: cell-based; conditions: 72 hours
Method: as §1

[9] = tested on: human mantle cell lymphoma cells Mino; experiment: MTS in vitro proliferation assay, Mino; assay type: cell-based; conditions: 72 hours
Method: as §1

[10] = tested on: human ovarian cancer cell OVCAR-8; experiment: MTS in vitro proliferation assay, OVCAR-8; assay type: cell-based; conditions: 72 hours, average of three experiments
Method: as §1

[11] = tested on: human colon cancer cell Colo205; experiment: MTS in vitro proliferation assay, Colo205; assay type: cell-based; conditions: COLO 205, 72 hours, average of three experiments
Method: as §1

[12] = tested on: human acute monocytic leukemia cells MV-4-11; experiment: MTS in vitro proliferation assay, MV-4-11; assay type: cell-based; conditions: MV4-11, 72 hours
Method: as §1

[13] = tested on: human breast cancer cells MCF-7; experiment: cells; conditions: MCF7, 72 h, read-out: IC50(μM) MCF-7
Method: as §1

[14] = Table 2 >10 μM or <1 μM, read-out: Chk1 IC50, bound with unit
[15] = Table 2 left column pair, numeric cells, read-out: Chk1 (IC50)

SMILES	IC50 [1, 14] [nM]	IC50 [1, 15] [nM]	IC50 [2] [µM]	IC50 [3] [µM]	IC50 [4] [µM]	IC50 [5] [µM]	IC50 [6] [µM]	IC50 [7] [µM]	IC50 [8] [µM]	IC50 [9] [µM]	IC50 [10] [µM]	IC50 [11] [µM]	IC50 [12] [µM]	IC50 [13] [µM]
CNc1nc(Nc2cn(C)c(OC3CCNCC3)n2)ncc1-c1cnn(C)c1 [Compound 3, N^4-Methyl-5-(1-methyl-1H-pyrazol-4-yl)-N^2-(1-methyl-2-(piperidin-4-yloxy)imidazol-4-yl)-2,4-diaminopyrimidine]	> 10000													
CNc1nc(NC2CN=C(OC3CCNCC3)O2)ncc1-c1cnn(C)c1 (stereo not shown) [Compound 5, N^4-Methyl-5-(1-methyl-1H-pyrazol-4-yl)-N^2-(2-(piperidin-4-yloxy)-4,5-2H-oxazolin-5-yl)-2,4-diaminopyrimidine]	> 10000													
CNc1nc(Nc2cnc(C#N)c(OC3CCCNC3)c2)ncc1-c1cnn(C)c1 (stereo not shown) [Compound 32, N^4-Methyl-5-(1-methyl-1H-pyrazol-4-yl)-N^2-(2-cyano-3-(piperidin-3-yloxy)pyridin-5-yl)-2,4-diaminopyrimidine]			4.18	7.64	0.789	5.17	8.18	6	0.189	0.859			0.064	
CNc1nc(Nc2cnc(C#N)c(O[C@@H]3CCCNC3)c2)ncc1-c1cnn(C)c1 [Compound 35, (R)-N^4-methyl-5-(1-methyl-1H-pyrazol-4-yl)-N^2-(2-cyano-3-(piperidin-3-yloxy)pyridin-5-yl)-2,4-diaminopyrimidine]			0.98	4.81	0.356	2.16	1.27	2.17	0.339	0.647	0.789	0.663	0.053	1.01
CNc1nc(Nc2cnc(C#N)c(O[C@H]3CCCNC3)c2)ncc1-c1cnn(C)c1 [Compound 36, (S)-N^4-methyl-5-(1-methyl-1H-pyrazol-4-yl)-N^2-(2-cyano-3-(piperidin-3-yloxy)pyridin-5-yl)-2,4-diaminopyrimidine]			2.55		0.649	5.74	2.49	4.89	0.548	0.956	4.18	2.18	0.072	
CNc1nc(Nc2cnc(C#N)c(O[C@H](C)CN(C)C)c2)ncc1-c1cnn(C)c1 [Compound 41, (R)-N^4-methyl-5-(1-methyl-1H-pyrazol-4-yl)-N^2-(2-cyano-3-(1-dimethylaminopropyl-2-oxy)pyridin-5-yl)-2,4-diaminopyrimidine]			1.31	5.17	0.119	2.17	0.945	2.62	0.094	0.473	1.19	0.993	0.034	1.01
CNc1nc(Nc2cnc(C#N)c(O[C@@H](C)CN(C)C)c2)ncc1-c1cnn(C)c1 [Compound 42, (S)-N^4-methyl-5-(1-methyl-1H-pyrazol-4-yl)-N^2-(2-cyano-3-(1-dimethylaminopropyl-2-oxy)pyridin-5-yl)-2,4-diaminopyrimidine]			4.19		0.218	> 10	0.814	5.74	0.137	0.227	2.17	1.03	0.092	

The next lines start with results.

IC50 [1, 14] [nM]	IC50 [1, 15] [nM]	SMILES	IC50 [2] [µM]	IC50 [3] [µM]	IC50 [4] [µM]	IC50 [5] [µM]	IC50 [6] [µM]	IC50 [7] [µM]	IC50 [8] [µM]	IC50 [9] [µM]	IC50 [10] [µM]	IC50 [11] [µM]	IC50 [12] [µM]	IC50 [13] [µM]
> 10000		CNc1nc(Nc2cc(OC3CCNCC3)n(C)n2)ncc1-c1cnn(C)c1 [Compound 1, N^4-methyl-5-(1-methyl-1H-pyrazol-4-yl)-N^2-(1-methyl-5-(piperidin-4-yloxy)pyrazol-3-yl)-2,4-diaminopyrimidine]												
> 10000		CNc1nc(Nc2cc(OC3CCNCC3)no2)ncc1-c1cnn(C)c1 [Compound 2, N^4-Methyl-5-(1-methyl-1H-pyrazol-4-yl)-N^2-(3-(piperidin-4-yloxy)isoxazol-5-yl)-2,4-diaminopyrimidine]												
> 10000		CNc1nc(Nc2cc(OC3CCNCC3)ns2)ncc1-c1cnn(C)c1 [Compound 4, N^4-Methyl-5-(1-methyl-1H-pyrazol-4-yl)-N^2-(2-(piperidin-4-yloxy)isothiazol-5-yl)-2,4-diaminopyrimidine]												
> 10000		CNc1nc(Nc2cnc(OC3CCNCC3)s2)ncc1-c1cnn(C)c1 [Compound 6, N^4-Methyl-5-(1-methyl-1H-pyrazol-4-yl)-N^2-(2-(piperidin-4-yloxy)thiazol-5-yl)-2,4-diaminopyrimidine]												
	8.8	COc1nc(Nc2cnc(C#N)c(OCC3CCNCC3)c2)ncc1-c1cccc(F)c1 [Compound 17, 4-methoxy-5-(3-fluorophenyl)-N-(2-cyano-3-(piperidin-4-methyl)oxypyridin-5-yl)-2-aminopyrimidine]	1.9	> 10	0.348	4.24	3.29	> 10	0.117	0.495	0.22	0.878	0.05	
	1.8	COc1nc(Nc2cnc(C#N)c(OCC3CCNCC3)c2)ncc1-c1cnn(C)c1 [Compound 18, 4-methoxy-5-(1-methyl-1H-pyrazol-4-yl)-N-(2-cyano-3-(piperidin-4-methyl)oxypyridin-5-yl)-2-aminopyrimidine]	1.77	7.11		3.17		7			2.14	1.01	0.036	
< 1000		N#Cc1ncc(Nc2ncc(C(F)(F)F)cn2)cc1OC1CCCNC1 (stereo not shown) [Compound 45, 5-trifluoromethyl-N-(2-cyano-3-(piperidin-3-oxy)pyridin-5-yl)-2-aminopyrimidine]												
< 1000		COc1nc(Nc2cnc(C#N)c(OCC3CCNCC3)c2)ncc1C(F)(F)F [Compound 46, 4-methoxy-5-trifluoromethyl-N-(2-cyano-3-(piperidin-4-methyl)oxypyridin-5-yl)-2-aminopyrimidine]												
< 1000		CNc1nc(Nc2cnc(C#N)c(O[C@@H]3CCCNC3)c2)ncc1C(F)(F)F [Compound 47, (R)—N^4-methyl-5-trifluoromethyl-N^2-(2-cyano-3-(piperidin-3-oxy)pyridin-5-yl)-2,4-diaminopyrimidine]												
